From patent publication US20240358672A1, “APPLICATION OF GENISTEIN AND ITS PHOSPHATE ESTER DERIVATIVE AND PHARMACEUTICAL COMPOSITION COMPRISING THE SAME” (National Taiwan University, priority 2023, published 2024)

Experiments:
CB1 receptor = CB1 receptor (Homo sapiens, UniProt P21554); assay: GTPase-Glo assay (in vitro GTPase assay); type: biochemical; conditions: GTPase-Glo assay
C57BL/6J mice = type: in vivo; conditions: Δ^9-THC 1 mg/kg plus genistein 50 mg/kg or rimonabant 3 mg/kg
Method: FIG. 7A: Isometric tension recordings of isolated mice thoracic aortas were performed using a wire myograph. Vascular concentration-dependent relaxation was induced by acetylcholine (ACh) in pre-constricted mouse thoracic arteries. […] FIG. 7C: Luminex analysis of inflammatory cytokines in plasma of C57BL/6J mice treated with vehicle control, Δ^9-THC, or Δ^9-THC plus genistein. […] FIG. 7E: Effect of Δ^9-THC and genistein on NF-κB phosphorylation in mouse thoracic artery. Total cell lysates were prepared, and the expressions of phosphor-NF-κB were analyzed by ELISA (upper left). Superoxide dismutase (SOD) activity of serum from mouse (bottom left). The effect of Δ^9-THC and genistein on NF-κB phosphorylation in mouse thoracic artery tissues (n=5). Total cell lysates were prepared, and the expressions of NF-κB, phosphorylated NF-κB, and β-actin were analyzed by western blot analysis (right panel). FIG. 7F: The levels reduced glutathione (GSH), Oxidized glutathione (GSSG), Total glutathione (T-GSH) and GSH/GSSG in the serum samples of mice were detected. Plasma isolated from C57BL/6J mice (n=5) treated with vehicle control, Δ^9-THC, genistein, or their combination every day for 30 days was analyzed by the glutathione colorimetric assay kit (BioVision, K261).
Genistein also rescued the oxidative stress protective-related gene expression (FIG. 7D). In addition, NF-κB phosphorylation and SOD expression in mouse serum were also attenuated with genistein (FIG. 7E). Δ^9-THC administration decreased circulating levels of the antioxidant glutathione, which was ameliorated with genistein cotreatment (FIG. 7F).

CB1 receptor, sequence (P21554 whole entry): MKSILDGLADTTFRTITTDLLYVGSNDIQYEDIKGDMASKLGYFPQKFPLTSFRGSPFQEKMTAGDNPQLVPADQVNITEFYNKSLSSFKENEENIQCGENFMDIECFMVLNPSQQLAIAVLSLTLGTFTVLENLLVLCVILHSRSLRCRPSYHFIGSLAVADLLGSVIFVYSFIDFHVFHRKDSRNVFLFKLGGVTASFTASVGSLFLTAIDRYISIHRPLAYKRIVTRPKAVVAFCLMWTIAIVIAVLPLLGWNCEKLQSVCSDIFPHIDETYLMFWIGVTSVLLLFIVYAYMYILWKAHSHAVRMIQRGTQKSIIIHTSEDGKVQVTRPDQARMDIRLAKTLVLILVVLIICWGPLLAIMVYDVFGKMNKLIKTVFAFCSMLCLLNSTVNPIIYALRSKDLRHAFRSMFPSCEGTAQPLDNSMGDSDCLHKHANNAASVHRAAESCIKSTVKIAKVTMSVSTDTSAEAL

SMILES	GTP turnover compared with Apo (CB1 receptor)	Δ^9-THC-induced mRNA expressions of inflammation-related genes in mouse thoracic artery tissues (C57BL/6J mice)
C[C@H](NC(=O)C(C)(C)Oc1ccc(C(F)(F)F)cn1)[C@@H](Cc1ccc(Cl)cc1)c1cccc(C#N)c1 [taranabant]	decrease GTP turnover	–
Cc1c(C(=O)NN2CCCCC2)nn(-c2ccc(Cl)cc2Cl)c1-c1ccc(Cl)cc1 [rimonabant]	–	ameliorated
